Calls of active or inactive are those of the source. The rule behind the calls is not given here.
What was measured:
[1] = Partition coefficient, Log P of the compound; type: physicochemical; conditions: octanol/water
K562 [2] = test: Photocytotoxicity against human K562 cells at 2 uM; type: functional, cell-based
K562 [3] = test: Cytotoxicity against human K562 cells at 2 uM after 24 hrs in dark; type: functional, cell-based

Structure (SMILES)	logP [1]	Activity (K562 [2])	Activity (K562 [3])
CN(CCCCNCCCCNC(=O)c1ccc(-c2c3nc(c(-c4ccc(C(=O)NCCCCNCCCCN(C)CCCNCCCN)cc4)c4ccc([nH]4)c(-c4ccc(C(=O)NCCCCNCCCN(C)CCCCNCCCN)cc4)c4ccc([nH]4)c(-c4ccc(C(=O)NCCCCNCCCN(C)CCCCNCCCN)cc4)c4nc2CC4)C=C3)cc1)CCCNCCCN	-1.98	–	–
C=Cc1c(C)c2cc3nc(c(CC(=O)NCCCCNCCCN(C)CCCCN)c4nc(cc5[nH]c(cc1[nH]2)c(C)c5CC)C(C)=C4C(=O)NCCCCNCCCN(C)CCCCN)[C@@H](CCC(=O)NCCNCCCN(C)CCCCN)[C@@H]3C	-0.45	Active	Active
CN(CCCN)CCCCNCCCCNC(=O)c1ccc(-c2c3nc(c(-c4ccc(C(=O)NCCCCNCCCCN(C)CCCN)cc4)c4ccc([nH]4)c(-c4ccc(C(=O)NCCCCNCCCN(C)CCCCN)cc4)c4ccc([nH]4)c(-c4ccc(C(=O)NCCCCNCCCN(C)CCCCN)cc4)c4nc2CC4)C=C3)cc1	-1.87	–	–
C=Cc1c(C)c2cc3nc(c(CC(=O)NCCCCNCCCN(C)CCCCNCCCN)c4nc(cc5[nH]c(cc1[nH]2)c(C)c5CC)C(C)=C4C(=O)NCCCCNCCCN(C)CCCCNCCCN)[C@@H](CCC(=O)NCCNCCCN(C)CCCCNCCCN)[C@@H]3C	-0.83	Active	Active
